Assay results as given in patent publication US20200181192A1, “DISULFIDE BIOCONJUGATION” (The Regents of the University of California, priority 2017, published 2020).

Key:
[1] = Solubility in polar solvents; type: physicochemical; conditions: for solubility in methanol:water mixture: 9:1 methanol:water; for solubility in polar solvents: acetonitrile, methanol
Description: Previous bicyclobutane molecules (1a, 1b) were determined by Baran and coworkers to be bench stable so no further studies were conducted on their stability.

[2] = in solvent left on the bench, over 2 days
[3] = in diethyl ether; diphenyl disulfide, benzyl amine, diphenyl acetic acid, 1-butanethiol; GC-MS
Source text: To determine the stability and selectivity of bicyclobutane molecules endo-3, exo-3 were solubilized in diethyl ether and tested with a variety of functional groups (diphenyl disulfide, benzyl amine, diphenyl acetic acid, and 1-butanethiol) then analyzed on a GC-MS to confirm the continued presence of starting materials.

[4] = determined by Baran and coworkers; no further studies conducted; cited from earlier work

Row | Structure (SMILES) | solubility in methanol:water mixture [1] | stability in polar solvents by 1H-NMR [2] | reaction with functional groups (continued presence of starting materials) [3] | bench stability [4] | solubility in polar solvents [1]
1 | OC[C@H]1[C@H]2C[C@@H]12 [endo-3, Endo-Bicyclo[1.1.-]butane-2-methanol] | soluble | no change | apparent only in the case with diphenyl acetic acid and 1-butane thiol | – | –
2 | Cc1ccc(S(=O)(=O)C23CC2C3)cc1 (stereo not shown) [1b, 1-tosylbicyclo[1.1.0]butane] | – | – | – | bench stable | not be completely soluble
3 | O=S(=O)(c1ccccc1)C12CC1C2 (stereo not shown) [1a, 1-(phenylsulfonyl)bicyclo[1.1.0]butane] | – | – | – | bench stable | not be completely soluble
4 | OC[C@@H]1[C@H]2C[C@@H]12 [exo-3, Exo-Bicyclo[1.1.-]butane-2-methanol] | soluble | no change | apparent only in the case with diphenyl acetic acid and 1-butane thiol | – | –
